In PubChem BioAssay AID2060890 (Molecular Pharmacology Branch, DTP, NCI, 2025):

System: LG0703-F948-PDC complex spheroid viability
Experiment: Anticancer human tumor LG0703-F948-PDC patient-derived lung adenocarcinoma cell line growth inhibition [RAS]
Conditions: for IC50: curve of first compound; for viability, T/C: stronger effect = lower value
In short: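 Multi-cell-type spheroids: tumor cells plus HUVEC endothelial cells and mesenchymal stem cells. RAS-pathway inhibitors were combined with targeted agents, each dosed in half-log steps down from clinical Cmax, or from 10 microM when Cmax was unknown.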

[1] = second compound 0.000949 µM, first compound 0.0316 µM
[2] = second compound 0.000949 µM, first compound 0.1 µM
[3] = second compound 0.000949 µM, first compound 0.316 µM
[4] = second compound 0.000949 µM, first compound 1 µM
[5] = second compound 0.000949 µM, first compound 3.16 µM
[6] = second compound 0.000949 µM, first compound 10 µM
[7] = second compound 0.003 µM, first compound 0.0316 µM
[8] = second compound 0.003 µM, first compound 0.1 µM
[9] = second compound 0.003 µM, first compound 0.316 µM
[10] = second compound 0.003 µM, first compound 1 µM
[11] = second compound 0.003 µM, first compound 3.16 µM
[12] = second compound 0.003 µM, first compound 10 µM
[13] = second compound 0.00949 µM, first compound 0.0316 µM
[14] = second compound 0.00949 µM, first compound 0.1 µM
[15] = second compound 0.00949 µM, first compound 0.316 µM
[16] = second compound 0.00949 µM, first compound 1 µM
[17] = second compound 0.00949 µM, first compound 3.16 µM
[18] = second compound 0.00949 µM, first compound 10 µM
[19] = second compound 0.03 µM, first compound 0.0316 µM
[20] = second compound 0.03 µM, first compound 0.1 µM
[21] = second compound 0.03 µM, first compound 0.316 µM
[22] = second compound 0.03 µM, first compound 1 µM
[23] = second compound 0.03 µM, first compound 3.16 µM
[24] = second compound 0.03 µM, first compound 10 µM
[25] = second compound 0.0949 µM, first compound 0.0316 µM
[26] = second compound 0.0949 µM, first compound 0.1 µM
[27] = second compound 0.0949 µM, first compound 0.316 µM
[28] = second compound 0.0949 µM, first compound 1 µM
[29] = second compound 0.0949 µM, first compound 3.16 µM
[30] = second compound 0.0949 µM, first compound 10 µM
[31] = second compound 0.3 µM, first compound 0.0316 µM
[32] = second compound 0.3 µM, first compound 0.1 µM
[33] = second compound 0.3 µM, first compound 0.316 µM
[34] = second compound 0.3 µM, first compound 1 µM
[35] = second compound 0.3 µM, first compound 3.16 µM
[36] = second compound 0.3 µM, first compound 10 µM
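Note: spheroids exposed to agents for 7 days.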
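Throughout, for viability, T/C: 100% = DMSO vehicle wells.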

CC(=O)OC12COC1CC(O)C1(C)C(=O)C(O)C3=C(C)C(OC(=O)C(O)C(NC(=O)OC(C)(C)C)c4ccccc4)CC(O)(C(OC(=O)c4ccccc4)C21)C3(C)C (stereo unspecified) + CCn1c(-c2cccnc2C(C)OC)c2c3cc(ccc31)N1CCOC(CC(NC(=O)C(C(C)C)N(C)C(=O)C3(F)CCN(C(=O)C#CC(C)(C)N(C)C)CC3)C(=O)N3CCCC(N3)C(=O)OCC(C)(C)C2)C1
IC50 (second compound 0.000949 µM): < 0.0316 µM | IC50 (second compound 0.003 µM): < 0.0316 µM | IC50 (second compound 0.00949 µM): < 0.0316 µM | IC50 (second compound 0.03 µM): < 0.0316 µM | IC50 (second compound 0.0949 µM): < 0.0316 µM | IC50 (second compound 0.3 µM): < 0.0316 µM | viability, T/C [1]: 40.1% | viability, T/C [2]: 36.8% | viability, T/C [3]: 36.3% | viability, T/C [4]: 39.4% | viability, T/C [5]: 44.2% | viability, T/C [6]: 41% | viability, T/C [7]: 37.7% | viability, T/C [8]: 35.4% | viability, T/C [9]: 41.1% | viability, T/C [10]: 42.1% | viability, T/C [11]: 38.7% | viability, T/C [12]: 35.6% | viability, T/C [13]: 36.5% | viability, T/C [14]: 36.7% | viability, T/C [15]: 36.6% | viability, T/C [16]: 40.9% | viability, T/C [17]: 49.5% | viability, T/C [18]: 46.9% | viability, T/C [19]: 33.5% | viability, T/C [20]: 35.5% | viability, T/C [21]: 36.5% | viability, T/C [22]: 40.3% | viability, T/C [23]: 42.5% | viability, T/C [24]: 34% | viability, T/C [25]: 39% | viability, T/C [26]: 32.7% | viability, T/C [27]: 33.4% | viability, T/C [28]: 34% | viability, T/C [29]: 35.6% | viability, T/C [30]: 37.1% | viability, T/C [31]: 28.5% | viability, T/C [32]: 22.3% | viability, T/C [33]: 22.4% | viability, T/C [34]: 23.4% | viability, T/C [35]: 23.7% | viability, T/C [36]: 20.9%

NC1c2ccccc2OC12CCN(c1cnc3c(N4CCCc5ncccc54)n[nH]c3n1)CC2 (stereo unspecified) + CCn1c(-c2cccnc2C(C)OC)c2c3cc(ccc31)N1CCOC(CC(NC(=O)C(C(C)C)N(C)C(=O)C3(F)CCN(C(=O)C#CC(C)(C)N(C)C)CC3)C(=O)N3CCCC(N3)C(=O)OCC(C)(C)C2)C1
IC50 (second compound 0.000949 µM): 0.0523 µM | IC50 (second compound 0.003 µM): 0.0462 µM | IC50 (second compound 0.00949 µM): 0.0479 µM | IC50 (second compound 0.03 µM): 0.0387 µM | IC50 (second compound 0.0949 µM): < 0.0316 µM | IC50 (second compound 0.3 µM): < 0.0316 µM | viability, T/C [1]: 55.4% | viability, T/C [2]: 43.5% | viability, T/C [3]: 22.8% | viability, T/C [4]: 12.4% | viability, T/C [5]: 4.73% | viability, T/C [6]: 2.85% | viability, T/C [7]: 57.1% | viability, T/C [8]: 35.3% | viability, T/C [9]: 21.8% | viability, T/C [10]: 10.3% | viability, T/C [11]: 6.54% | viability, T/C [12]: 2.52% | viability, T/C [13]: 59.1% | viability, T/C [14]: 33.1% | viability, T/C [15]: 20.6% | viability, T/C [16]: 8.74% | viability, T/C [17]: 5.35% | viability, T/C [18]: 2.44% | viability, T/C [19]: 53.6% | viability, T/C [20]: 33.8% | viability, T/C [21]: 18.5% | viability, T/C [22]: 10.7% | viability, T/C [23]: 4.93% | viability, T/C [24]: 1.68% | viability, T/C [25]: 42% | viability, T/C [26]: 27.2% | viability, T/C [27]: 12% | viability, T/C [28]: 5.4% | viability, T/C [29]: 2.95% | viability, T/C [30]: 1.32% | viability, T/C [31]: 25.2% | viability, T/C [32]: 10.4% | viability, T/C [33]: 7.14% | viability, T/C [34]: 2.48% | viability, T/C [35]: 2.04% | viability, T/C [36]: 1.58%

Nc1ccn(C2OC(CO)C(O)C2(F)F)c(=O)n1 (stereo unspecified) + CCn1c(-c2cccnc2C(C)OC)c2c3cc(ccc31)N1CCOC(CC(NC(=O)C(C(C)C)N(C)C(=O)C3(F)CCN(C(=O)C#CC(C)(C)N(C)C)CC3)C(=O)N3CCCC(N3)C(=O)OCC(C)(C)C2)C1
IC50 (second compound 0.000949 µM): 0.00767 µM | IC50 (second compound 0.003 µM): 0.00928 µM | IC50 (second compound 0.00949 µM): 0.00752 µM | IC50 (second compound 0.03 µM): 0.00669 µM | IC50 (second compound 0.0949 µM): < 0.00316 µM | IC50 (second compound 0.3 µM): < 0.00316 µM | viability, T/C (second compound 0.000949 µM, first compound 0.00316 µM): 79.2% | viability, T/C (second compound 0.000949 µM, first compound 0.01 µM): 40.2% | viability, T/C [1]: 36.9% | viability, T/C [2]: 32% | viability, T/C [3]: 32% | viability, T/C [4]: 30% | viability, T/C (second compound 0.003 µM, first compound 0.00316 µM): 76.2% | viability, T/C (second compound 0.003 µM, first compound 0.01 µM): 48.3% | viability, T/C [7]: 38.9% | viability, T/C [8]: 29.8% | viability, T/C [9]: 38.9% | viability, T/C [10]: 31.3% | viability, T/C (second compound 0.00949 µM, first compound 0.00316 µM): 70.7% | viability, T/C (second compound 0.00949 µM, first compound 0.01 µM): 43.2% | viability, T/C [13]: 38% | viability, T/C [14]: 36.9% | viability, T/C [15]: 43.9% | viability, T/C [16]: 30.9% | viability, T/C (second compound 0.03 µM, first compound 0.00316 µM): 66% | viability, T/C (second compound 0.03 µM, first compound 0.01 µM): 41.4% | viability, T/C [19]: 34% | viability, T/C [20]: 30% | viability, T/C [21]: 34.7% | viability, T/C [22]: 28.9% | viability, T/C (second compound 0.0949 µM, first compound 0.00316 µM): 49.3% | viability, T/C (second compound 0.0949 µM, first compound 0.01 µM): 33.2% | viability, T/C [25]: 26.7% | viability, T/C [26]: 30% | viability, T/C [27]: 27.8% | viability, T/C [28]: 22.2% | viability, T/C (second compound 0.3 µM, first compound 0.00316 µM): 31.7% | viability, T/C (second compound 0.3 µM, first compound 0.01 µM): 22.4% | viability, T/C [31]: 27.9% | viability, T/C [32]: 27.2% | viability, T/C [33]: 31.4% | viability, T/C [34]: 19.4%
